Results: patent publication US12617797B2, “Substituted pyrazolo [1,5-a]pyrimidines having multimodal activity against pain” (ESTEVE PHARMACEUTICALS, S.A., priority 2020, dated 2026)

Key:
[1] = target: Human α2δ-1 subunit of Cav2.2 calcium channel (Homo sapiens, UniProt P54289); assay: Human α2δ-1 subunit of Cav2.2 calcium channel assay ([3H]-gabapentin binding); settings: binding to the α2δ-1 subunit of voltage-gated calcium channels expressed as Ki; + also covers inhibition between 1% and 50%
Protocol: Biological Activity Pharmacological Study Human α2δ-1 Subunit of Cav2.2 Calcium Channel Assay
Human α2δ-1 enriched membranes (2.5 μg) were incubated with 15 nM of radiolabeled [^3H]-Gabapentin in assay buffer containing Hepes-KOH 10 mM, pH 7.4. NSB (non specific binding) was measured by adding 10 μM pregabalin. The binding of the test compound was measured at either one concentration (% inhibition at 1 or 10 μM) or five different concentrations to determine affinity values (Ki). After 60 min incubation at 27° C., binding reaction was terminated by filtering through Multiscreen GF/C (Millipore) presoaked in 0.5% polyethyleneimine in Vacuum Manifold Station, followed by 3 washes with ice-cold filtration buffer containing 50 mM Tris-HCl, pH 7.4. Filter plates were dried at 60° C. for 1 h and 30 μL of scintillation cocktail were added to each well before radioactivity reading. Readings were performed in a Trilux 1450 Microbeta radioactive counter (Perkin Elmer).

Human σ1 receptor = target: T1, Human σ1 receptor (Homo sapiens, UniProt Q99720); assay: Human σ1 receptor radioligand assay ([3H](+)-pentazocine binding, transfected HEK-293 membranes); settings: binding to σ1 receptor expressed as Ki; + also covers inhibition between 1% and 50%; read-out: σ-1 binding
T1 construct: expressed in transfected cells; host or cells: HEK-293
T1 sequence (Q99720 whole entry): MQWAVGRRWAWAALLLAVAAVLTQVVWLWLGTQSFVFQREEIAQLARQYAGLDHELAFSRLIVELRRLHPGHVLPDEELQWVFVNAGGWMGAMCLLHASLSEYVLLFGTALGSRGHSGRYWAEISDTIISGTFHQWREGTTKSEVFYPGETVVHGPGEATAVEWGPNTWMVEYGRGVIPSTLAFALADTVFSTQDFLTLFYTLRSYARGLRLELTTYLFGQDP
Protocol: Human σ1 Receptor Radioligand Assay
Transfected HEK-293 membranes (7 μg) were incubated with 5 nM of [^3H](+)-pentazocine in assay buffer containing Tris-HCl 50 mM at pH 8. NBS (non-specific binding) was measured by adding 10 μM haloperidol. The binding of the test compound was measured at either one concentration (% inhibition at 1 or 10 μM) or five different concentrations to determine affinity values (Ki). Plates were incubated at 37° C. for 120 minutes. After the incubation period, the reaction mix was then transferred to MultiScreen HTS, FC plates (Millipore), filtered and plates were washed 3 times with ice-cold 10 mM Tris-HCL (pH7.4). Filters were dried and counted at approximately 40% efficiency in a MicroBeta scintillation counter (Perkin-Elmer) using EcoScint liquid scintillation cocktail.

Human α2δ-1 subunit of Cav2.2 calcium channel, sequence (P54289 25-1103): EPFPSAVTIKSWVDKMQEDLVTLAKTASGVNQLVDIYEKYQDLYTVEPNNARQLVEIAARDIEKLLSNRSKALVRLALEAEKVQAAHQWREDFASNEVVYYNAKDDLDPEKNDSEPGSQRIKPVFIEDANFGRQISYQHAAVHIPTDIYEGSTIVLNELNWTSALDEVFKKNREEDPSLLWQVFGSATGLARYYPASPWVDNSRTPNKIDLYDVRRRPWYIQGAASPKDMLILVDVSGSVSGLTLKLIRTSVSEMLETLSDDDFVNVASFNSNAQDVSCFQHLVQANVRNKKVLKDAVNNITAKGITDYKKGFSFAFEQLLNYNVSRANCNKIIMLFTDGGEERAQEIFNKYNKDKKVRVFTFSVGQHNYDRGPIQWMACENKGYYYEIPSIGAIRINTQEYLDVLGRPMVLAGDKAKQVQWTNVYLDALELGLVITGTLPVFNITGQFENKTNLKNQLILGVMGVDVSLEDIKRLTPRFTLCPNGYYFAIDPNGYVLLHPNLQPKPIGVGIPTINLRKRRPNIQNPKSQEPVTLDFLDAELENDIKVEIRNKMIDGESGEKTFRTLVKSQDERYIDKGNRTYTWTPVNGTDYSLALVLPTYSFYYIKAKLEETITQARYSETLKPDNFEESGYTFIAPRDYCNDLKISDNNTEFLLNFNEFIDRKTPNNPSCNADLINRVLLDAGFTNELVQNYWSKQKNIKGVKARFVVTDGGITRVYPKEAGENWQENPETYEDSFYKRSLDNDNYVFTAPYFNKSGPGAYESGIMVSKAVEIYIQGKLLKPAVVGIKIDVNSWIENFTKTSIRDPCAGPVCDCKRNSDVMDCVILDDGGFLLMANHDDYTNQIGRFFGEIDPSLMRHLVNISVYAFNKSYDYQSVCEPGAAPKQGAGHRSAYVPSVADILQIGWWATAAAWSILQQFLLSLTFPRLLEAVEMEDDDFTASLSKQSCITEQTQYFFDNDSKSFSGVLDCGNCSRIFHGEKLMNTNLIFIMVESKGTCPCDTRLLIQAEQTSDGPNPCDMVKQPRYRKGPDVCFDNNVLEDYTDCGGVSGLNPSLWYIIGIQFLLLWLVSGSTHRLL

Compound | Ki [1] [µM] | Ki (Human σ1 receptor) [µM]
Cc1nn2c(C3CCCN(Cc4ccc(Cl)cc4)C3)ccnc2c1CNCC1CCOC1 (racemic) [Example 201, (+/−)-1-(7-((R/S)-1-(4-Chlorobenzyl)piperidin-3-yl)-2-methylpyrazolo[1,5-a]pyrimidin-3-yl)-N—(((S/R)-tetrahydrofuran-3-yl)methyl)methanamine] | > 5 | < 0.5
Cc1nn2c([C@@H]3CCCN(Cc4ccc(Cl)cc4)C3)ccnc2c1CNC[C@@H]1CCOC(C)(C)C1 (racemic) [Example 221, (+/−)-1-(7-((R/S)-1-(4-Chlorobenzyl)piperidin-3-yl)-2-methylpyrazolo[1,5-a]pyrimidin-3-yl)-N—(((R/S)-2,2-dimethyltetrahydro-2H-pyran-4-yl)methyl)methanamine] | < 0.5 | < 0.5
Cc1nn2c([C@@H]3CCCN(Cc4ccc(Cl)cc4)C3)ccnc2c1CN[C@H](C)C1CCOCC1 (racemic) [Example 224, (+/−)-(R/S)—N-((7-((R/S)-1-(4-Chlorobenzyl)piperidin-3-yl)-2-methylpyrazolo[1,5-a]pyrimidin-3-yl)methyl)-1-(tetrahydro-2H-pyran-4-yl)ethan-1-amine] | 0.5 to 5 | < 0.5
Brc1cc2nccc(C3CCCN(Cc4ccccc4)C3)n2n1 (stereo not shown) [Example 1, 7-(1-Benzylpiperidin-3-yl)-2-bromopyrazolo[1,5-a]pyrimidine] | 0.5 to 5 | 0.5 to 1
c1ccc(CN2CCCC(c3ccnc4ccnn34)C2)cc1 (stereo not shown) [Example 2, 7-(1-Benzylpiperidin-3-yl)pyrazolo[1,5-a]pyrimidine] | 0.5 to 5 | > 1
Cc1cc2nccc(C3CCCN(Cc4ccccc4)C3)n2n1 (stereo not shown) [Example 3, 7-(1-Benzylpiperidin-3-yl)-2-methylpyrazolo[1,5-a]pyrimidine] | 0.5 to 5 | 0.5 to 1
CCc1cc2nccc(C3CCCN(Cc4ccccc4)C3)n2n1 (stereo not shown) [Example 4, 7-(1-Benzylpiperidin-3-yl)-2-ethylpyrazolo[1,5-a]pyrimidine] | 0.5 to 5 | < 0.5
Brc1cnn2c(C3CCCN(Cc4ccccc4)C3)ccnc12 (stereo not shown) [Example 5, 7-(1-Benzylpiperidin-3-yl)-3-bromopyrazolo[1,5-a]pyrimidine] | 0.5 to 5 | < 0.5
Cc1cnc2c(Br)c(C)nn2c1C1CCCN(Cc2ccccc2)C1 (stereo not shown) [Example 6, 7-(1-Benzylpiperidin-3-yl)-3-bromo-2,6-dimethylpyrazolo[1,5-a]pyrimidine] | 0.5 to 5 | > 1
Cc1cnc2c(Br)cnn2c1C1CCCN(Cc2ccccc2)C1 (stereo not shown) [Example 7, 7-(1-Benzylpiperidin-3-yl)-3-bromo-6-methylpyrazolo[1,5-a]pyrimidine] | > 5 | > 1
CC(=O)Nc1c(C)nn2c(C3CCCN(Cc4ccccc4)C3)ccnc12 (stereo not shown) [Example 8, N-(7-(1-Benzylpiperidin-3-yl)-2-methylpyrazolo[1,5-a]pyrimidin-3-yl)acetamide] | > 5 | > 1
CC(=O)Nc1nn2c(C3CCCN(Cc4ccccc4)C3)ccnc2c1C (stereo not shown) [Example 9, N-(7-(1-Benzylpiperidin-3-yl)-3-methylpyrazolo[1,5-a]pyrimidin-2-yl)acetamide] | > 5 | > 1
Cc1nn2c(C3CCCN(Cc4ccccc4)C3)ccnc2c1Br (stereo not shown) [Example 10, 7-(1-Benzylpiperidin-3-yl)-3-bromo-2-methylpyrazolo[1,5-a]pyrimidine] | 0.5 to 5 | < 0.5
CCc1nn2c(C3CCCN(Cc4ccccc4)C3)ccnc2c1Br (stereo not shown) [Example 11, 7-(1-Benzylpiperidin-3-yl)-3-bromo-2-ethylpyrazolo[1,5-a]pyrimidine] | 0.5 to 5 | < 0.5
c1ccc(CN2CCCC(c3ccnc4cc(-c5ccccc5)nn34)C2)cc1 (stereo not shown) [Example 12, 7-(1-Benzylpiperidin-3-yl)-2-phenylpyrazolo[1,5-a]pyrimidine] | > 5 | 0.5 to 1
CCOc1ccc(-c2cc3nccc(C4CCCN(Cc5ccccc5)C4)n3n2)cc1 (stereo not shown) [Example 13, 7-(1-Benzylpiperidin-3-yl)-2-(4-ethoxyphenyl)pyrazolo[1,5-a]pyrimidine] | > 5 | > 1
Fc1ccccc1-c1cc2nccc(C3CCCN(Cc4ccccc4)C3)n2n1 (stereo not shown) [Example 14, 7-(1-Benzylpiperidin-3-yl)-2-(2-fluorophenyl)pyrazolo[1,5-a]pyrimidine] | 0.5 to 5 | 0.5 to 1

Compound | Ki [1] [µM] | Ki (Human σ1 receptor) [µM]
Clc1ccc(-c2cc3nccc(C4CCCN(Cc5ccccc5)C4)n3n2)cc1 (stereo not shown) [Example 15, 7-(1-Benzylpiperidin-3-yl)-2-(4-chlorophenyl)pyrazolo[1,5-a]pyrimidine] | > 5 | > 1
c1ccc(CN2CCCC(c3ccnc4cc(-c5ccncc5)nn34)C2)cc1 (stereo not shown) [Example 16, 7-(1-Benzylpiperidin-3-yl)-2-(pyridin-4-yl)pyrazolo[1,5-a]pyrimidine] | 0.5 to 5 | > 1
c1ccc(CN2CCCC(c3ccnc4cc(-c5cccnc5)nn34)C2)cc1 (stereo not shown) [Example 17, 7-(1-Benzylpiperidin-3-yl)-2-(pyridin-3-yl)pyrazolo[1,5-a]pyrimidine] | 0.5 to 5 | 0.5 to 1
Clc1cncc(Cl)c1-c1cc2nccc(C3CCCN(Cc4ccccc4)C3)n2n1 (stereo not shown) [Example 18, 7-(1-Benzylpiperidin-3-yl)-2-(3,5-dichloropyridin-4-yl)pyrazolo[1,5-a]pyrimidine] | 0.5 to 5 | 0.5 to 1
c1ccc(CN2CCCC(c3ccnc4cc(-c5cccs5)nn34)C2)cc1 (stereo not shown) [Example 19, 7-(1-Benzylpiperidin-3-yl)-2-(thiophen-2-yl)pyrazolo[1,5-a]pyrimidine] | 0.5 to 5 | > 1
c1ccc(CN2CCCC(c3ccnc4cc(-c5cnsc5)nn34)C2)cc1 (stereo not shown) [Example 20, 4-(7-(1-Benzylpiperidin-3-yl)pyrazolo[1,5-a]pyrimidin-2-yl)isothiazole] | 0.5 to 5 | > 1
Cn1cncc1-c1cc2nccc(C3CCCN(Cc4ccccc4)C3)n2n1 (stereo not shown) [Example 21, 7-(1-Benzylpiperidin-3-yl)-2-(1-methyl-1H-imidazol-5-yl)pyrazolo[1,5-a]pyrimidine] | 0.5 to 5 | > 1
CN(C)c1ccc(-c2cc3nccc(C4CCCN(Cc5ccccc5)C4)n3n2)cc1 (stereo not shown) [Example 22, 4-(7-(1-Benzylpiperidin-3-yl)pyrazolo[1,5-a]pyrimidin-2-yl)-N,N-dimethylaniline] | 0.5 to 5 | > 1
c1ccc(CN2CCCC(c3ccnc4cc(-c5cncnc5)nn34)C2)cc1 (stereo not shown) [Example 23, 7-(1-Benzylpiperidin-3-yl)-2-(pyrimidin-5-yl)pyrazolo[1,5-a]pyrimidine] | 0.5 to 5 | > 1
Nc1ccc(-c2cc3nccc(C4CCCN(Cc5ccccc5)C4)n3n2)cn1 (stereo not shown) [Example 24, 5-(7-(1-Benzylpiperidin-3-yl)pyrazolo[1,5-a]pyrimidin-2-yl)pyridin-2-amine] | 0.5 to 5 | > 1
Cn1cc(-c2cc3nccc(C4CCCN(Cc5ccccc5)C4)n3n2)cn1 (stereo not shown) [Example 25, 7-(1-Benzylpiperidin-3-yl)-2-(1-methyl-1H-pyrazol-4-yl)pyrazolo[1,5-a]pyrimidine] | > 5 | > 1
c1ccc(CN2CCCC(c3ccnc4cc(-c5ccccn5)nn34)C2)cc1 (stereo not shown) [Example 26, 7-(1-Benzylpiperidin-3-yl)-2-(pyridin-2-yl)pyrazolo[1,5-a]pyrimidine] | < 0.5 | > 1
COc1ncccc1-c1cc2nccc(C3CCCN(Cc4ccccc4)C3)n2n1 (stereo not shown) [Example 27, 7-(1-Benzylpiperidin-3-yl)-2-(2-methoxypyridin-3-yl)pyrazolo[1,5-a]pyrimidine] | 0.5 to 5 | 0.5 to 1
COc1ccc(-c2cc3nccc(C4CCCN(Cc5ccccc5)C4)n3n2)cn1 (stereo not shown) [Example 28, 7-(1-Benzylpiperidin-3-yl)-2-(6-methoxypyridin-3-yl)pyrazolo[1,5-a]pyrimidine] | 0.5 to 5 | > 1
COc1ccccc1-c1cc2nccc(C3CCCN(Cc4ccccc4)C3)n2n1 (stereo not shown) [Example 29, 7-(1-Benzylpiperidin-3-yl)-2-(2-methoxyphenyl)pyrazolo[1,5-a]pyrimidine] | 0.5 to 5 | > 1
COc1cccc(-c2cc3nccc(C4CCCN(Cc5ccccc5)C4)n3n2)n1 (stereo not shown) [Example 30, 7-(1-Benzylpiperidin-3-yl)-2-(6-methoxypyridin-2-yl)pyrazolo[1,5-a]pyrimidine] | > 5 | > 1
CC(=O)N1CCC(CNCc2c(Cl)nn3c([C@@H]4CCCN(Cc5ccccc5)C4)ccnc23)CC1 [Example 217, (R)-1-(4-((((7-(1-benzylpiperidin-3-yl)-2-chloropyrazolo[1,5-a]pyrimidin-3-yl)methyl)amino)methyl)piperidin-1-yl)ethan-1-one] | > 5 | 
